The target of test [1] is T1, CCR1 (Homo sapiens, UniProt P32246).
T1 sequence (P32246 1-355): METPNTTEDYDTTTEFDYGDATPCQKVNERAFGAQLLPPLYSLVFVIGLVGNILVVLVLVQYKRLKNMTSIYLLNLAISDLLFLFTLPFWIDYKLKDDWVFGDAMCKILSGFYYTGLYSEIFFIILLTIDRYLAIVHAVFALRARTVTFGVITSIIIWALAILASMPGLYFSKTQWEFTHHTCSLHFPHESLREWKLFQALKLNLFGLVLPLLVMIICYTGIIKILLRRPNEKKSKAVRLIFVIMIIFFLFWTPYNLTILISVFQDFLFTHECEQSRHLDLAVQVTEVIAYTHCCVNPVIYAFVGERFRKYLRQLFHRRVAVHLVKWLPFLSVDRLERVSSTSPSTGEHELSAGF
Kind of test: calcium flux in CCR1 transfected cells, Method B (Calcium 4 dye, HAMAMATSU FDSS6000). Particulars: cells stably expressing recombinant CCR1 and G-alpha-16, MIP-1alpha at EC80. It counts as cell-based. Here is the method:
(§1) Compounds are assessed for the ability to block the interaction of CCR1 and MIP-1α in a functional cellular assay measuring calcium flux in CCR1 transfected cells.
Method B: Non-adherent cells purchased from Chemicon Corporation (HTS005C), stably expressing recombinant CCR1 and G-alpha-16 are grown in RPMI 1640 medium (Mediatech 10-080-CM) supplemented with 10% FBS, 0.4 mg/mL Geneticin and penicillin/streptomycin. On the day of the assay, the cells are loaded with Calcium 4 dye (Molecular Devices R7448) with Probenecid (Invitrogen P346400) at 8E5 cells/mL for 1 hour at room temperature. After 1 hour, they are seeded in a 384-well tissue culture-treated plate at a density of 20,000 cells/well. Appropriately diluted test compound is added to the well to achieve a top concentration of 3,000 nM (diluted 4-fold with 10 doses total). The final concentration of DMSO is 1%. The buffer is HBSS (Invitrogen 14025) with 20 mM HEPES at pH 7.4. The cells incubate 30 minutes at 37 C and then 30 minutes at room temperature. The plates are transferred to the HAMAMATSU FDSS6000 where MIP-1alpha in 1% BSA is added at the EC80 final concentration. All plates must be read within 4 hours of the start of dye-loading. Wells+/−MIP-1alpha containing diluted DMSO instead of compound serve as the controls. Data are analyzed using Activity Base software.
(Calcium assays in cells follow changes in intracellular calcium, usually with a dye or a luminescent sensor.)

For test [2], the target named is T1, CCR1. The test is described as follows: calcium flux in CCR1 transfected cells, Method A (Fluo-4 NW, FLIPR TETRA). The format is cell-based. Particulars: cells stably expressing recombinant CCR1 and G-alpha-16, MIP-1 alpha at EC80. Here is the method:
as §1
Method A: Non-adherent cells purchased from Chemicon Corporation (HTS005C), stably expressing recombinant CCR1 and G-alpha-16 are grown in RPMI 1640 medium (Mediatech 10-080-CM) supplemented with 10% heat-inactivated FBS, 0.4 mg/mL Geneticin and penicillin/streptomycin. On the day of the assay, the cells are transferred to a beaker and dye-loaded in bulk using a Fluo-4 NW Calcium Assay Kit with probenecid (Invitrogen F36205) at 0.8E6 cells/mL for 1 hour at room temperature. After 1 hour, they are seeded in a 384-well tissue culture-treated plate at a density of 20,000 cells/well. Appropriately diluted test compound is added to the well to achieve a top concentration of 3,000 nM (diluted 4-fold with 10 doses total). The final concentration of DMSO is 1%. The buffer is HBSS (Invitrogen 14025) with 20 mM HEPES at pH 7.4. The cells are allowed to incubate 1 hour in the dark at room temperature. The plates are transferred to the FLIPR TETRA where MIP-1 alpha in 1% BSA is added at the EC80 final concentration. Wells+/−MIP-1 alpha containing diluted DMSO instead of compound serve as the controls. Intracellular calcium flux is recorded on the FLIPR TETRA, using excitation at 470/495 nm and emission at 515/575 nm. Data are analyzed using Activity Base software.

IC50 data for 30 molecules are collected here from patent publication US8546442B2, “Pyrazolopiperidine compounds as CCR1 receptor antagonists” (Boehringer Ingelheim International GmbH, priority 2010, dated 2013).

Usually IC50 stands for the concentration at which inhibition is half-maximal. Regarding `CCC[C@H](NC(=O)N1c2cnn(-c3ccc(F)cc3)c2CCC1C(F)(F)F)c1ccnc(S(C)(=O)=O)c1` (single isomer, unassigned) [Example 56], the IC50 in test [1] was determined as 6 nM; in test [2] it was 10 nM.

As for `CNS(=O)(=O)c1ccc(CNC(=O)N2CCCc3c2cnn3-c2ccc(F)cc2)cc1` [Example 22], the IC50 was 5 nM in test [1] and 22 nM in test [2].

On to `CS(=O)(=O)c1cccc(CNC(=O)N2CCCc3c2cnn3-c2ccc(F)cc2)c1` [Example 23], for which the half-inhibitory concentration (IC50) in test [1] was found to be 22 nM; in test [2] it was 31 nM.

Turning to `CCCC(NC(=O)N1CCCc2c1cnn2-c1ccc(F)cc1)c1cncc(S(C)(=O)=O)c1` (centres unmarked) [Example 24], the IC50 in test [2] stood at 0.6 nM.

Take `CS(=O)(=O)c1ccc(CNC(=O)N2CCCc3c2cnn3-c2ccc(F)cc2)cc1` [Example 25]: the IC50 in test [1] was determined as 65 nM; in test [2], 51 nM.

As for `COCCNS(=O)(=O)c1ccc(CNC(=O)N2CCCc3c2cnn3-c2ccc(F)cc2)cc1` [Example 26], the values for the IC50 in test [1] and in test [2] were 4 nM and 6 nM, respectively.

In the case of `O=C(NCc1ccc(S(=O)(=O)NC2CCOCC2)cc1)N1CCCc2c1cnn2-c1ccc(F)cc1` [Example 28, 1-(4-Fluorophenyl)-1,5,6,7-tetrahydro-pyrazolo[4,3-b]pyridine-4-carboxylic acid 4-(tetrahydro-pyran-4-ylsulfamoyl)-benzylamide], the figures for the IC50 in test [1] and in test [2] were 10 nM and 40 nM, respectively.

As to `CNS(=O)(=O)c1ccc(CNC(=O)N2CCCc3c2cnn3-c2ccc(F)cc2)c(Cl)c1` [Example 31], the IC50 in test [1] was found to be 1 nM; in test [2], 3 nM.

On to `CN(C)S(=O)(=O)c1cccc(CNC(=O)N2CCCc3c2cnn3-c2ccc(F)cc2)c1` [Example 33], for which the IC50 in test [2] was determined as 19 nM.

Consider `C[C@H](CO)NS(=O)(=O)c1ccc(CNC(=O)N2CCCc3c2cnn3-c2ccc(F)cc2)cc1` [Example 34], for which the IC50 in test [2] amounted to 20 nM.

Take `C[C@@H](CO)NS(=O)(=O)c1ccc(CNC(=O)N2CCCc3c2cnn3-c2ccc(F)cc2)cc1` [Example 35]: the IC50 in test [2] turned out to be 4 nM.

`CCCC(NC(=O)N1CCCc2c1cnn2-c1ccc(F)cc1)c1ccc(S(C)(=O)=O)nc1` (centres unmarked) [Example 36]: the IC50 in test [1] and in test [2] was 3 nM throughout.

Turning to `CNS(=O)(=O)c1ccc(CNC(=O)N2CCCc3c2cnn3-c2ccc(F)cc2)c(F)c1` [Example 38], the IC50 is 2 nM in test [1] and 11 nM in test [2].

As to `CCCC(NC(=O)N1CCCc2c1cnn2-c1ccc(F)cc1)c1cncc(Br)c1` (centres unmarked) [Example 39], the IC50 in test [1] amounted to 0.4 nM; in test [2], 0.2 nM.

Turning to `O=C(NCc1cc(Cl)cc(Cl)c1)N1CCCc2c1cnn2-c1ccc(F)cc1` [Example 40], the IC50 was determined as 3 nM in test [1] and 33 nM in test [2].

Consider `C[C@H](NC(=O)N1CCCc2c1cnn2-c1ccc(F)cc1)c1cncc(Br)c1` [Example 41], for which the concentration for half-maximal inhibition (IC50) in test [1] turned out to be 2 nM; in test [2] it was 6 nM.

Consider `CC[C@H](NC(=O)N1CCCc2c1cnn2-c1ccc(F)cc1)c1cncc(Br)c1` [Example 42], for which the values for the IC50 in test [1] and in test [2] were 0.2 nM and 0.4 nM, respectively.

For the molecule `CC[C@H](NC(=O)N1CCCc2c1cnn2-c1ccc(F)cc1)c1cncc(S(C)(=O)=O)c1` [Example 45], the half-maximal inhibitory concentration (IC50) in test [1] stood at 0.6 nM; in test [2], 1 nM.

As for `CCC[C@H](NC(=O)N1CCCc2c1cnn2-c1ccc(F)cc1)c1cncc(Br)c1` [Example 46], the IC50 in test [1] and in test [2] was 0.2 nM each time.

Consider `CCC[C@H](NC(=O)N1CCCc2c1cnn2-c1ccc(F)cc1)c1cncc(S(C)(=O)=O)c1` [Example 47], for which the IC50 came out at 0.2 nM in test [1] and 0.4 nM in test [2].

On to `CC[C@H](NC(=O)N1CCCc2c1cnn2-c1ccc(F)cc1)c1ccc(Br)nc1` [Example 48, 1-(4-Fluorophenyl)-1,5,6,7-tetrahydro-pyrazolo[4,3-b]pyridine-4-carboxylic acid [(S)-1-(6-bromo-pyridin-3-yl)-propyl]-amide], for which the IC50 in test [1] was 2 nM; in test [2], 19 nM.

Take `CCC[C@H](NC(=O)N1CCCc2c1cnn2-c1ccc(F)cc1)c1ccc(Br)nc1` [Example 49]: the IC50 was 2 nM in test [1] and 12 nM in test [2].

Take `CCC[C@H](NC(=O)N1CCCc2c1cnn2-c1ccc(F)cc1)c1ccc(S(C)(=O)=O)nc1` [Example 50]: the half-maximal inhibitory concentration (IC50) was 0.9 nM in test [1] and 4 nM in test [2].

Regarding `CC[C@H](NC(=O)N1CCCc2c1cnn2-c1ccc(F)cc1)c1ccc(S(C)(=O)=O)nc1` [Example 51], the IC50 in test [1] is 3 nM; in test [2], 14 nM.

`CC[C@H](NC(=O)N1c2cnn(-c3ccc(F)cc3)c2CCC1C)c1ccnc(S(C)(=O)=O)c1` (some centres unmarked) [Example 55]: the IC50 in test [1] is 12 nM; in test [2], 13 nM.

Regarding `CC[C@H](NC(=O)N1CCCc2c1cnn2-c1ccc(F)cc1)c1ccnc(S(C)(=O)=O)c1` [Example 59], the IC50 in test [1] worked out at 0.6 nM; in test [2] it was 0.4 nM.

`CCC[C@H](NC(=O)N1CCCc2c1cnn2-c1ccc(F)cc1)c1ccnc(S(C)(=O)=O)c1` [Example 60]: the IC50 in test [1] came to 0.3 nM; in test [2], 0.5 nM.

Regarding `CCC[C@H](NC(=O)N1c2cnn(-c3ccc(F)cc3)c2CCC1C(F)(F)F)c1cncc(S(C)(=O)=O)c1` (some centres unmarked) [Example 61], the IC50 in test [1] turned out to be 8 nM; in test [2] it was 12 nM.

On to `CCC[C@H](NC(=O)N1CCCc2c1cnn2-c1ccc(F)cc1F)c1ccnc(S(C)(=O)=O)c1` [Example 62], for which the concentration for half-maximal inhibition (IC50) in test [1] and in test [2] was 1 nM in each case.

For the molecule `CCC[C@H](NC(=O)N1CCCc2c1cnn2-c1c(F)cc(F)cc1F)c1ccnc(S(C)(=O)=O)c1` [Example 63], the IC50 in test [1] and in test [2] was 14 nM each time.
